# Entries after “also recorded” stand apart in the source; their conditions may differ.
# Columns and labels:
# [1] = test system: polarized human airway epithelia; assay: In situ localization of S35-labeled rAAV particles (photoemulsion, morphometry); type: cell-based; settings: 2 hours post-infection, apical or basolateral infection
# Description: FIG. 13. In situ localization of rAAV in the polarized airway epithelia using S^35 labeled virus. Polarized human airway epithelia were infected with S^35-labeled virus (MOI=50,000 particles/cell) from either the apical or basolateral side (+/−LLnL). At 2 hours post-infection, transwells were washed with media three times and fixed in 4% paraformaldehyde overnight prior to cryoprotection in sucrose and OCT embedding. 10 μm frozen sections were overlaid with photoemulsion and developed after 5 weeks of exposure. Panel A depicts the typical localization pattern following basolateral infection in the presence of LLnL. Arrows indicate nuclear-associated virus. Panel B presents enlargements of boxed regions in Panel A. Blinded morphometric quantification was performed by counting the number of nuclear-associated and cytoplasmic radioactive grains of 10 random fields, as shown in Panel A. A total of 60 cells was quantitated per field, to give a total of 600 cells per sample and 2400 cells per condition. Results in Panel C are the mean +/−SEM of four independent samples for each condition.
# Cryosections of polarized airway epithelial cells infected with ^35S-labeled AV.GFP3ori (MOI=50,000 particles/cell) from the apical or basolateral sides in the presence or absence of LLnL were overlaid with photographic emulsion and exposed for 5 weeks prior to developing. […]
# [2] = test system: human bronchial epithelia; assay: Southern blot of Hirt DNA for rAAV genomes in polarized airway epithelia; type: cell-based
# Description: FIGS. 15A–C. Examination of rAAV endocytosis by Southern blot analysis of viral DNA. Hirt DNA from AV.GFP3ori infected or mock infected (Lanes 1 and 7 in both FIGS. 15A and 15B) human bronchial epithelia were extracted for a direct examination of viral genomes by Southern blotting against a P^32-labeled EGFP probe. FIG. 15A depicts viral binding studies in the presence and absence of LLnL with or without EGTA treatment prior to apical or basolateral infection for 1 hour at 4° C. Cell surface-bound virus was completely removed by trypsin (FIG. 15A, lanes 2 through 6). To determine the amount of the surface-bound rAVV, cells were infected with AV.GFP3ori for 1 hour at 4° C. and were not treated with trypsin prior to Hirt DNA extraction. Panel A: lane 8: apical AAV infection; lane 9: apical AAV infection in the presence of LLnL; lane 10: cells were pre-treated with hypotonic EGTA prior to apical infection in the presence of LLnL; lane 11: basolateral infection; lane 12: basolateral infection in the presence of LLnL. FIG. 15B depicts the results of studies evaluating rAAV internalization from either the apical or the basolateral surface in the presence or absence of LLnL, and the internalization from the apical surface after combined treatment with hypotonic EGTA and LLnL. To detect the net amount of the internalized viral genome, all samples in FIG. 15B were treated with trypsin just before Hirt DNA was harvested. The extent of the internalized virus at 4 hours (FIG. 15B, lanes 2 through 6) and 24 hours (FIG. 15B, lanes 8 through 12) incubation at 37° C. after infection is represented by the intensity of the 1.6 kb single stranded viral genome band. FIG. 15B; lane 2; apical AAV infection for 4 hours; lane 3: apical AAV infection in the presence of LLnL for 4 hours; lane 4: cells were pre-treated with hypotonic EGTA prior to apical infection in the presence of LLnL for 4 hours; lane 5: basal infection for 4 hours; lane 6: basolateral infection in the presence of LLnL for 4 hours; lane 8: apical infection for 24 hours; lane 9: apical infection in the presence of LLnL for 24 hours; lane 10: cells were pre-treated with hypotonic EGTA prior to apical infection in the presence of LLnL for 24 hours; lane 11: basolateral infection for 24 hours; lane 12: basolateral infection in the presence of LLnL for 24 hours. […]
# Molecular analysis of rAAV viral genomes owing infection of polarized airway epithelial cultures. […] Following binding, the extent of viral internalization was assessed by continuing incubations in the presence of virus at 37° C. for 4–24 hours. […] The 1.6 kb single stranded viral DNA, the 2.7 kb double stranded circular intermediate, and the 4.7 kb double stranded replication from viral genome were detected with a transgene EGFP specific probe at 5×10^6 cpm/ml. […]
substance,measurement,setting,value
N-acetyl-L-leucinyl-L-leucinal-L-norleucinal [LLnL],intracellular distribution of radiolabeled rAAV particles (nuclear vs cytoplasmic grains),[1],significant increase in nuclear trafficking; also recorded: significant shift to nuclear associated grains
same,rAAV binding to either surface (Southern blot),[2]; 1 hour at 4° C.,not affected
same,enzymatic degradation of internalized AAV viral DNA,[2]; LLnL alone,did not substantially prevent enzymatic degradation
same,amount of virus internalized from apical surface,[2]; hypotonic EGTA pretreatment and LLnL,substantially increased the amount of virus internalized

# From US7122335B1, “Compounds and methods to enhance rAAV transduction” (priority 1999, dated 2006)
